Data from patent US8343512B2, “Treatment of allergic conditions using a composition containing synthetic adjuvant” (Infectious Disease Research Institute, priority 2006, dated 2013).

Tests used:
ID83 antigen = ID83 antigen with GLA-SE, GLA/CpG-SE or GLA/GDQ-SE in mice, intracellular cytokine staining; type: in vivo, Mice (C57BL/6); details: GLA/GDQ-SE or GLA/CpG-SE versus GLA-SE
Human whole blood cells = test: GLA stimulation of human blood cells, IL-1β ELISA; type: cell-based; details: 16 hours
Description: Human whole blood cells were cultured with various adjuvant concentrations of either synthetic GLA (Avanti Polar Lipids, Inc., Alabaster, Ala.; product number 699800) or the natural product MPL® (GSK Biologicals, Rixensart, Belgium), achieved by diluting an aqueous adjuvant preparation in cell culture medium (DMEM containing 10% fetal bovine serum). Blood cells were maintained for 16 hours at 37° C. in a humidified atmosphere containing 5% CO2, prior to collection of cell-free culture supernatants. Supernatant fluids were assayed for soluble human cytokine IL-1β using specific sandwich ELISA assay kit (eBiosciences, San Diego, Calif.) according to the manufacturer's instructions.

Influenza = test: Fluzone vaccine with GLA-AF or GLA-SE in mice, anti-Fluzone IgG ELISA and HAI; type: in vivo, Mice (Balb/c); details: GLA 20 μg in aqueous or stable oil formulation; compared to Fluzone alone
Description: Mice (three Balb/c animals per group) were immunized twice at three-week intervals with the Fluzone vaccine (Sanofi-Aventis, Swiftwater, Pa., at 1/25 (20 μl) and 1/250 (2 μl) of the human dosage, alone, or formulated in (i) an aqueous emulsion containing GLA (Avanti Polar Lipids, Inc., Alabaster, Ala.; product number 699800; 20 μg per animal for each immunization) according to the procedure used in Example 1 above (“GLA-AF”), or (ii) a stable emulsion containing GLA (Avanti Polar Lipids, Inc., Alabaster, Ala.; product number 699800; 20 μg per animal for each immunization) according to the procedure used in Example 3 above (“GLA-SE”). Sera were collected by bleeding animals one week after each immunization, and serum levels of total IgG antibodies specific for Fluzone were examined by ELISA according to published methods (Id.). Serum levels of virus neutralizing antibodies were also examined by Hemagglutination Inhibition Assay (HAI) according to published methods.

Leish-110f antigen = Leish-110f antigen with different amounts of GLA-SE in mice, IgG1/IgG2a ELISA; type: in vivo, Mice (Balb/c)
Description: Mice (three Balb/c animals per group) were immunized three times at two-week intervals with the Leish-110f antigen (10 μg per animal for each immunization) formulated in a stable emulsion containing different amounts of GLA (Avanti Polar Lipids, Inc., Alabaster, Ala.; product number 699800; 40, 20, 5, or 1 μg per animal for each immunization according to the procedure used in Example 3 above, GLA-SE). Sera were collected by bleeding animals one week after the first immunization, and serum levels of IgG1 and IgG2a antibodies specific for Leish-110f were examined by ELISA according to published methods (Id.).

[1] = system: Dendritic cells derived from purified blood CD14+ monocytes; test: GLA stimulation of human dendritic cells, CD86 surface expression by flow cytometry; type: cell-based
Source text: Dendritic cells were derived from purified blood CD14+ monocytes following a published protocol. Various adjuvant concentrations of either synthetic GLA (Avanti Polar Lipids, Inc., Alabaster, Ala.; product number 699800) or the natural product MPL® (GSK Biologicals, Rixensart, Belgium) were achieved by diluting an aqueous adjuvant preparation in cell culture medium (RPMI containing 5% human serum). Prior to collection and analysis of the expression of activation markers, cells were maintained for 44 hours at 37° C. in a humidified atmosphere containing 5% CO2. Expression levels of the costimulatory molecule CD86 at the surface of DC were used as an indicator of cell activation and measured by flow cytometry on a LSRII instrument (BD Biosciences, San Jose, Calif.) using CD86-specific fluorochrome-labeled antibody (eBiosciences, San Diego, Calif.) according to the manufacturer's instructions.

USP Rabbit Pyrogen Test = details: in vivo
Description: GLA and MPL were evaluated for pyrogenicity/toxicity using the United States Pharmacopeial (USP) rabbit pyrogen test method. GLA was tested at the same doses and conditions commonly used for MPL.

ML0276 antigen = ML0276 antigen with CpG, Imiquimod, GLA-SE or mix in mice, IFN-γ CD4+ T cell ICS; type: in vivo, Mice (C57BL/6); details: adjuvant given with ML0276 antigen 10 μg; saline background 0.04%
Description: Mice (three C57BL/6 animals per group) were immunized three times at three-week intervals with the ML0276 antigen (10 μg per animal for each immunization) adjuvanted with aqueous formulations containing CpG (CpG1826, Coley Pharmaceutical, 25 μg per animal for each immunization), or Imiquimod (IMQ) (3M Pharma, 25 μg per animal for each immunization), or GLA (Avanti Polar Lipids, Inc., Alabaster, Ala.; product number 699800; 25 μg per animal for each immunization, according to the procedure used in Example 3 above, GLA-SE), a mix of the three, or saline as negative control. Three weeks after the last injection, mice were sacrificed and spleen collected to analyze CD4+ T cell-dependent IFN-γ cytokine responses to in vitro ML0276 antigen stimulation by ICS and Flow cytometry according to published methods. Expression of IFN-γ cytokine has been associated with protective TH1 responses against M. leprae infection.

CCNCc1nc2c(N)nc3ccccc3c2n1CC(C)(C)O [GDQ, Gardiquimod]
frequency of ID83 specific cytokine producing T cells on addition of a second TLR ligand to ID83+GLA-SE (ID83 antigen): further increased

CCCCCCCCCCCCCC(=O)O[C@H](CCCCCCCCCCC)CC(=O)O[C@@H]1[C@@H](NC(=O)C[C@@H](CCCCCCCCCCC)OC(=O)CCCCCCCCCCC)[C@H](OC[C@H]2O[C@H](O)[C@H](NC(=O)C[C@H](O)CCCCCCCCCCC)[C@@H](OC(=O)C[C@H](O)CCCCCCCCCCC)[C@@H]2O)O[C@H](CO)[C@H]1OP(=O)(O)O [GLA, glucopyranosyl lipid adjuvant]
concentration equivalent in potency (IL-1β secretion) (Human whole blood cells): 92 nM | Total IgG and neutralizing antibody titers in response to Fluzone vaccination (Influenza): enhanced | Leish-110f-specific IgG1 and IgG2a antibody titers (Leish-110f antigen; GLA 40, 20, 5, or 1 μg in GLA-SE, one week after the first immunization): GLA dose-dependent | predominant Leish-110f-specific antibody isotype (Leish-110f antigen; all concentrations of GLA tested): Predominance of TH1 associated IgG2a antibody | active at concentrations lower compared to MPL for human dendritic cell maturation ([1]; CD86 expression): at least 10 fold | CD86 expression, GLA versus MPL ([1]; additional three donors, 1000 ng/ml to 1 ng/mL): lower doses of GLA achieved higher CD86 expression than MPL | pyrogenicity/toxicity, USP<151> requirements (USP Rabbit Pyrogen Test): passed the USP<151> requirements for the absence of pyrogens

CC(C)Cn1cnc2c(N)nc3ccccc3c21 [IMQ, Imiquimod]
frequency of ML0276 specific IFN-γ+ CD4+ T cells (positive cells) (ML0276 antigen): 0.11%
